This is an account of results in patent US8158657B2, “Heterocycles substituted pyridine derivatives and antifungal agent containing thereof” (Eisai R&D Management Co., Ltd., priority 2005, dated 2012).

Test [1] has as its system C. albicans CAF2-1 strain. The test can be described thus: Anti-Candida activity, MIC measurement. The test is classed as cell-based. As to conditions: CAF21STRAIN, C. albicans CAF2-1, RPMI1640, 42-48 hours at 35° C., visual inspection, read-out: Anti-Candida Activity (minimum inhibitory concentration, MIC). The protocol: (§1) For the C. albicans CAF2-1 strain, a fungal suspension from a standing culture for 48 hours at 30° C. in a Sabouraud dextrose liquid culture medium (SDB) was diluted with RPMI1640 medium to adjust a fungal suspension of 1.2×10^3 cells/mL. For the A. fumigatus Tsukuba strain, −80° C. stored strain was diluted with RPMI1640 medium to adjust to a fungal suspension of 4.5×10^3 cells/mL.
(§2) Using a U-bottomed 96 well plate, 8 samples/plate (A to H) of sample dilution solutions were prepared. On the 2nd to 12th rows were dispensed 10 μL of dimethyl sulfoxide solution. Weighted sample was dissolved in dimethyl sulfoxide to prepare a 2.5 mg/mL solution, 20 μL of this solution was added to the first row of the prepared plate, and 12 steps of two-fold step dilutions (10 μL of solution+10 μL of dimethyl sulfoxide solution) were performed on the plate. This sample dilution solution was dispensed in the amount of 1 μL to a flat-bottomed 96 well plate for MIC measurement to prepare a sample dilution plate.
(§3) The fungal suspension prepared in (1) was used in the amount of 99 μL/well to inoculate the flat-bottomed 96 well plate containing 1 μL/well of the test compound dilution prepared in (2), and a standing culture was carried out aerobically for 42-48 hours at 35° C.

Test [2] deals with A. fumigatus Tsukuba strain. As to the kind of experiment: Anti-Aspergillus activity, MIC measurement. The test is classed as cell-based. As to conditions: RPMI1640, 42-48 hours at 35° C., visual inspection, read-out: Anti-Aspergillus Activity (minimum inhibitory concentration, MIC). The protocol:
as §1, §2, §3

Each structure is given as a SMILES string. Converted amounts (≈) assume the structure as drawn.

In the case of `CCCCOCc1ccc(Cc2cc(-c3cccnc3N)on2)cc1` [Example 4, 3-(3-(4-Butoxymethyl-benzyl)-isoxazol-5-yl)-pyridin-2-ylamine], the MIC in test [1] was determined as 0.2 µg/mL (≈ 0.593 µM); in test [2], 0.39 µg/mL (≈ 1.16 µM).
Regarding `Nc1ncccc1-n1cc(Cc2ccc(OCc3ccccc3)cc2)cn1` [Example 39, 3-(4-(4-Benzyloxy-benzyl)-pyrazol-1-yl)-pyridin-2-ylamine], the MIC in test [1] and in test [2] was 3.13 µg/mL (≈ 8.78 µM) throughout.
In the case of `Cc1ccc(Cc2ccc(Cc3cc(-c4ccc(N)nc4)on3)cc2)o1` [Example 178, 5-(3-(4-(5-Methyl-furan-2-ylmethyl)-benzyl)-isoxazol-5-yl)-pyridin-2-ylamine], the MIC in test [1] was 0.39 µg/mL (≈ 1.13 µM); in test [2], 0.2 µg/mL (≈ 0.579 µM).
For `COCc1ccc(-c2cc(Cc3ccc(OCc4ccccc4)cc3)no2)c(N)n1` [Example 26, 3-(3-(4-Benzyloxy-benzyl)-isoxazol-5-yl)-6-methoxymethyl-pyridin-2-ylamine], the MIC in test [1] and in test [2] was 0.78 µg/mL (≈ 1.94 µM) in each case.
On to `Nc1ncccc1-c1cc(Cc2ccc(OCc3ccc(F)c(F)c3)nc2)no1` [Example 89, 3-(3-(6-(3,4-Difluoro-benzyloxy)-pyridin-3-ylmethyl)-isoxazol-5-yl)-pyridin-2-ylamine], for which the MIC in test [1] is 0.39 µg/mL (≈ 0.989 µM); in test [2], 0.2 µg/mL (≈ 0.507 µM).
For `Nc1ncccc1-c1cc(Cc2ccc(CSc3ccccc3)cc2)no1` [Example 206], in that order: 0.1 µg/mL (≈ 0.268 µM) and 0.39 µg/mL (≈ 1.04 µM).
Consider `Nc1ncc(F)cc1-c1cc(Cc2ccc(OCc3ccc(F)cn3)cc2)no1` [Example 174, 5-Fluoro-3-(3-(4-(5-fluoro-pyridin-2-ylmethoxy)-benzyl)-isoxazol-5-yl)pyridin-2-ylamine], for which the MIC in test [1] worked out at 6.25 µg/mL (≈ 15.8 µM); in test [2], 1.56 µg/mL (≈ 3.96 µM).
`Nc1ccc(-c2cc(Cc3ccc(NCc4ccccc4)cc3)no2)c(N)n1` [Example 128, 3-(3-(4-Benzylamino-benzyl)-isoxazol-5-yl)-pyridin-2,6-diamine]: the MIC amounted to 0.2 µg/mL (≈ 0.538 µM) in test [1] and 0.39 µg/mL (≈ 1.05 µM) in test [2].
For `COCc1ccc(-c2cc(Cc3ccc(Cc4ccc(Cl)o4)cc3)no2)c(N)n1` [Example 168, 3-(3-(4-(5-Chloro-furan-2-ylmethyl)-benzyl)-isoxazol-5-yl)-6-methoxymethyl-pyridin-2-ylamine], in that order: 0.78 µg/mL (≈ 1.9 µM) and 0.78 µg/mL (≈ 1.9 µM).
For `Nc1ccc(-c2cc(Cc3ccc(OCc4ccc(F)cn4)cc3)no2)cn1` [Example 184, 5-(3-(4-(5-Fluoro-pyridin-2-ylmethoxy)-benzyl)-isoxazol-5-yl)-pyridin-2-ylamine] the same measures were more than 25 µg/mL and 0.39 µg/mL (≈ 1.04 µM).
Consider `Nc1ccc(-c2cc(Cc3ccc(COc4cc(F)ccn4)cc3)no2)c(N)n1` [Example 117, 3-(3-(4-(4-Fluoro-pyridin-2-yloxymethyl)-benzyl)-isoxazol-5-yl)-pyridin-2,6-diamine], for which the MIC in test [1] is 1.56 µg/mL (≈ 3.99 µM); in test [2], 0.78 µg/mL (≈ 1.99 µM).
For `Nc1ccc(-c2cc(Cc3ccc(COc4ccc(F)cc4)nc3)no2)c(N)n1` [Example 132, 3-(3-(6-(4-Fluoro-phenoxymethyl)-pyridin-3-ylmethyl)-isoxazol-5-yl)pyridin-2,6-diamine], in that order: 3.13 µg/mL (≈ 8 µM) and 3.13 µg/mL (≈ 8 µM).
For `Nc1ncccc1-c1cc(Cc2ccc(COc3ccc(F)cn3)cc2)no1` [Example 56] the same measures were 1.56 µg/mL (≈ 4.14 µM) and more than 25 µg/mL.
For `CCCCOc1ccc(Cc2cc(-c3cccnc3N)on2)cc1` [Example 67, 3-(3-(4-Butoxy-benzyl)-isoxazol-5-yl)-pyridin-2-ylamine], in that order: 1.56 µg/mL (≈ 4.82 µM) and 0.78 µg/mL (≈ 2.41 µM).
In the case of `Nc1ccc(-c2cc(Cc3ccc(Oc4cccnc4)nc3)no2)c(N)n1` [Example 164, 3-(3-(6-(Pyridin-3-yloxy)-pyridin-3-ylmethyl)-isoxazol-5-yl)-pyridin-2,6-diamine], the MIC in test [1] and in test [2] was 6.25 µg/mL (≈ 17.3 µM) in each case.
`Nc1ccc(-c2cc(Cc3ccc(SCc4ccccc4)cc3)no2)c(N)n1` [Example 216, 3-(3-(4-Benzylsulfanyl-benzyl)-isoxazol-5-yl)-pyridin-2,6-diamine]: the MIC in test [1] and in test [2] was 0.39 µg/mL (≈ 1 µM) each time.
For `Nc1ncccc1-c1cc(Cc2cccc(-c3ccccn3)c2)no1` [Example 84, 3-(3-(3-Pyridin-2-yl-benzyl)-isoxazol-5-yl)-pyridin-2-ylamine], the figures for the MIC in test [1] and in test [2] were 3.13 µg/mL (≈ 9.53 µM) and more than 25 µg/mL, respectively.
Consider `Nc1ncccc1-c1cc(Cc2cccc(Oc3ccccc3)c2)no1` [Example 64, 3-(3-(3-Phenoxy-benzyl)-isoxazol-5-yl)-pyridin-2-ylamine], for which the MIC in test [1] was found to be 0.2 µg/mL (≈ 0.582 µM); in test [2], 0.78 µg/mL (≈ 2.27 µM).
For `Nc1ncccc1-c1cc(Cc2cccc(-c3ccccc3)c2)no1` [Example 85, 3-(3-Biphenyl-3-ylmethyl-isoxazol-5-yl)-pyridin-2-ylamine], in that order: 1.56 µg/mL (≈ 4.77 µM) and 3.13 µg/mL (≈ 9.56 µM).
For `Nc1ccc(-c2cc(Cc3ccc(Oc4ccccc4)nc3)no2)cn1` [Example 181, 5-(3-(6-Phenoxy-pyridin-3-ylmethyl)-isoxazol-5-yl)-pyridin-2-ylamine], in that order: 1.56 µg/mL (≈ 4.53 µM) and 0.39 µg/mL (≈ 1.13 µM).
For `Nc1ncccc1-c1cc(Cc2ccc(OCC3CC3)cc2)no1` [Example 8, 3-(3-(4-Cyclopropylmethoxy-benzyl)-isoxazol-5-yl)-pyridin-2-ylamine] the same measures were 1.56 µg/mL (≈ 4.85 µM) and 0.78 µg/mL (≈ 2.43 µM).
Take `Nc1ccc(-c2cc(Cc3ccn(Cc4cccc(F)c4)c3)no2)c(N)n1` [Example 160, 3-(3-(1-(3-Fluoro-benzyl)-1H-pyrrol-3-ylmethyl)-isoxazol-5-yl)-pyridin-2,6-diamine]: the MIC in test [1] worked out at 0.39 µg/mL (≈ 1.07 µM); in test [2], 0.78 µg/mL (≈ 2.15 µM).
As for `Cc1ccc(-c2cc(Cc3ccc(OCc4ccccc4)cc3)no2)c(N)n1` [Example 170, 3-(3-(4-benzyloxy-benzyl)-isoxazol-5-yl)-6-methyl-pyridin-2-ylamine], the MIC in test [1] stood at 0.78 µg/mL (≈ 2.1 µM); in test [2] it was 0.39 µg/mL (≈ 1.05 µM).
For `C#Cc1cccc(COc2ccc(Cc3cc(-c4ccc(N)nc4N)on3)cc2)c1` [Example 214, 3-(3-(4-(3-Ethynyl-benzyloxy)-benzyl)-isoxazol-5-yl)-pyridin-2,6-diamine], in that order: 0.39 µg/mL (≈ 0.984 µM) and 0.39 µg/mL (≈ 0.984 µM).
Consider `Nc1ccc(-c2cc(Cc3ccc(COc4ccccn4)cc3F)no2)c(N)n1` [Example 211, 3-(3-(2-Fluoro-4-(pyridin-2-yloxymethyl)-benzyl)-isoxazol-5-yl)-pyridin-2,6-diamine], for which the MIC in test [1] and in test [2] was 0.39 µg/mL (≈ 0.996 µM) in each case.
For `Nc1ccc(-c2cc(Cc3cncc(Oc4ccccc4)c3)no2)c(N)n1` [Example 145, 3-(3-(5-Phenoxy-pyridin-3-ylmethyl)-isoxazol-5-yl)-pyridin-2,6-diamine], the MIC worked out at 6.25 µg/mL (≈ 17.4 µM) in test [1] and 12.5 µg/mL (≈ 34.8 µM) in test [2].
For `CNc1ccc(-c2cc(Cc3ccc(OCc4ccccc4)nc3)no2)c(N)n1` [Example 224, 3-(3-(6-Benzyloxy-pyridin-3-ylmethyl)-isoxazol-5-yl)-N^6-methyl-pyridin-2,6-diamine] the same measures were 0.39 µg/mL (≈ 1.01 µM) and 0.2 µg/mL (≈ 0.516 µM).
For `Nc1ccc(-c2cc(Cc3cccc(-c4ccccn4)c3)no2)c(N)n1` [Example 146, 3-(3-(3-Pyridin-2-yl-benzyl)-isoxazol-5-yl)-pyridin-2,6-diamine], in that order: 6.25 µg/mL (≈ 18.2 µM) and more than 25 µg/mL.
For `Nc1ncccc1-c1cc(Cc2ccn(Cc3ccccc3)c2)no1` [Example 57, 3-(3-(1-Benzyl-1H-pyrrol-3-ylmethyl)-isoxazol-5-yl)-pyridin-2-ylamine], in that order: 0.05 µg/mL (≈ 0.151 µM) and 0.2 µg/mL (≈ 0.605 µM).
Take `Nc1ncccc1-c1cc(Cc2ccc(OCc3nccs3)cc2)no1` [Example 88, 3-(3-(4-(Thiazol-2-ylmethoxy)-benzyl)-isoxazol-5-yl)-pyridin-2-ylamine]: the MIC in test [1] and in test [2] was 0.2 µg/mL (≈ 0.549 µM) throughout.
As for `Nc1ncccc1-c1cc(Cc2ccc(OC3CCCC3)cc2)no1` [Example 78, 3-(3-(4-Cyclopentyloxy-benzyl)-isoxazol-5-yl)-pyridin-2-ylamine], the MIC came to 0.78 µg/mL (≈ 2.33 µM) in test [1] and 1.56 µg/mL (≈ 4.65 µM) in test [2].
As for `Nc1ncccc1-c1cc(Cc2ccc(OCc3ccc(F)cc3)cc2)no1` [Example 7, 3-(3-(4-(4-Fluoro-benzyloxy)-benzyl)-isoxazol-5-yl)-pyridin-2-ylamine], the MIC is 1.56 µg/mL (≈ 4.16 µM) in test [1] and 0.2 µg/mL (≈ 0.533 µM) in test [2].
As to `Nc1ncccc1-c1cc(Cc2ccc(OCc3ccccn3)c(F)c2)no1` [Example 87, 3-(3-(3-Fluoro-4-(pyridin-2-ylmethoxy)-benzyl)-isoxazol-5-yl)-pyridin-2-ylamine], the MIC in test [1] is 0.2 µg/mL (≈ 0.531 µM); in test [2] it was 0.78 µg/mL (≈ 2.07 µM).
For `Nc1ncccc1-c1cc(Cc2ccc(Oc3ccc(F)cc3)nc2)no1` [Example 75, 3-(3-(6-(4-Fluoro-phenoxy)-pyridin-3-ylmethyl)-isoxazol-5-yl)-pyridin-2-ylamine], in that order: 0.78 µg/mL (≈ 2.15 µM) and 0.2 µg/mL (≈ 0.552 µM).
